Experimental data as given in ChEMBL document CHEMBL1201862, “PubChem BioAssay data set” (2004).
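Compound exposure: 48 hours, 5 concentrations, 96-well plates. GI50: concentration for 50% inhibition of growth.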 Active and inactive are the calls of the source. No stated cut-off is given here; in the data, active = GI50 up to about 1.1 µM and inactive = higher.

Legend:
Experiment in all cases: NCI-60 cell line screen, 48 h
786-0 = system: 786-0
A498 = system: A498
EKVX = system: EKVX
HT-29 = system: HT-29
IGROV-1 = system: IGROV-1
K562 = system: K562
NCI-H226 = system: NCI-H226
NCI-H460 = system: NCI-H460
RPMI-8226 = system: RPMI-8226
SF-539 = system: SF-539
SK-MEL-28 = system: SK-MEL-28
SN12C = system: SN12C
SNB-75 = system: SNB-75
TK-10 = system: TK-10
UACC-257 = system: UACC-257
UO-31 = system: UO-31
OVCAR-4 = system: OVCAR-4

Measured: GI50

CN(C)C(c1ccccc1)C(O)c1ccccc1 (configuration not stated)
inactive: 786-0 > 100 µM | A498 > 100 µM | EKVX > 100 µM | HT-29 > 100 µM | IGROV-1 > 100 µM | K562 > 100 µM | NCI-H226 > 100 µM | NCI-H460 > 100 µM | RPMI-8226 > 100 µM | SF-539 > 100 µM | SK-MEL-28 > 100 µM | SN12C > 100 µM | SNB-75 75.5 µM | TK-10 > 100 µM | UACC-257 > 100 µM | UO-31 > 100 µM

c1ccc2c(c1)Sc1ccccc1N2C1CN2CCC1CC2 (configuration not stated)
inactive: 786-0 13 µM | A498 8.36 µM | EKVX 13 µM | HT-29 17.3 µM | IGROV-1 18.9 µM | K562 13.7 µM | NCI-H226 4.09 µM | NCI-H460 16.1 µM | OVCAR-4 17.7 µM | RPMI-8226 23.1 µM | SF-539 14 µM | SK-MEL-28 15.8 µM | SN12C 14.2 µM | SNB-75 6 µM | TK-10 14 µM | UACC-257 15.5 µM | UO-31 16.7 µM

COC(=O)c1ccc(C(=O)OC)c2nc3cc(C)ccc3nc12
inactive: 786-0 > 100 µM | A498 > 100 µM | EKVX > 100 µM | HT-29 > 100 µM | IGROV-1 > 100 µM | K562 > 100 µM | NCI-H226 51.1 µM | NCI-H460 > 100 µM | OVCAR-4 > 100 µM | RPMI-8226 > 100 µM | SF-539 > 100 µM | SK-MEL-28 > 100 µM | SN12C > 100 µM | SNB-75 > 100 µM | TK-10 > 100 µM | UACC-257 > 100 µM | UO-31 > 100 µM

O=C(/C=C1/NC(=O)CS1)Nc1ccccc1
inactive: 786-0 > 100 µM | A498 > 100 µM | EKVX > 100 µM | HT-29 > 100 µM | IGROV-1 > 100 µM | K562 > 100 µM | NCI-H226 > 100 µM | NCI-H460 > 100 µM | OVCAR-4 > 100 µM | RPMI-8226 > 100 µM | SF-539 > 100 µM | SK-MEL-28 > 100 µM | SN12C > 100 µM | SNB-75 50 µM | TK-10 > 100 µM | UO-31 > 100 µM

CCOc1ccc(/N=C/c2cccc3cccnc23)cc1
inactive: 786-0 > 100 µM | A498 > 100 µM | EKVX > 100 µM | HT-29 > 100 µM | IGROV-1 > 100 µM | K562 20 µM | NCI-H226 > 100 µM | NCI-H460 > 100 µM | OVCAR-4 > 100 µM | RPMI-8226 30.3 µM | SF-539 > 100 µM | SK-MEL-28 > 100 µM | SN12C > 100 µM | SNB-75 > 100 µM | TK-10 > 100 µM | UACC-257 > 100 µM
